Assay results as given in patent US10363314B2, “Sprayable topical carrier and composition comprising phosphatidylcholine” (LIPIDOR AB, priority 2013, dated 2019).

System: human skin
Test: Erythema occurrence upon treating skin with carriers under occlusion for 12 days, first study
Format: in vivo
Details: 33 healthy volunteers, occlusive conditions, applied 5 days per week, scored after 12 days, index 0-4
Protocol: The effect of prior art pharmaceutical compositions and of carriers and compositions of the invention on human skin was observed by visual inspection or by determining erythema index by using DermaLab Combo and DSM II Colormeter (Cortex Technology, Denmark).
Erythema occurrence was assessed in two human studies. In the first study the skin irritation potential of different lipid carriers was evaluated. Thirty-three healthy volunteers received the test formulations and a positive and negative control under occlusive conditions. The test articles were applied 5 days per week and the irritation grade was scored after 12 days according to a four-level assessment index (0=No reaction; 1=Slight diffuse, partial erythema; 2=Clear, sharply demarcated erythema; 3=Severe erythema with induration; 4=Severe erythema with induration and/or epidermal defect).

CCCCCCCCCCCCOS(=O)(=O)[O-].[Na+] [Pos. control, Sodium dodecylsulfate]
Mean erythema assessment index: 3.0
